# Active and inactive are the calls of the source. The rule behind the calls is not given here.
# System: CCRIS mutagenicity, Ames/micronucleus/aberration tests
# Experiment: CCRIS mutagenicity studies
smiles,measurement,setting,value
CCOS(C)(=O)=O,mutagenic call,"End Point: IN VITRO MICRONUCLEUS, Test System: CHL/IU CELLS, Metabolic Activation: NONE",active; positive
same,mutagenic call,"End Point: IN VITRO MICRONUCLEUS, Test System: V79 CELLS, Metabolic Activation: NONE",active; positive
same,mutagenic call,"End Point: In vitro micronucleus, Test System: Chinese Hamster Ovary (CHO-WBL) cells, Metabolic Activation: None",active; positive (p<0.01)
same,mutagenic call,"End Point: In vivo micronucleus, Test System: Micronucleated hepatocytes, Species: Rat, Strain/Sex: F344/Male, Route: Intraperitoneal",inactive; negative
same,mutagenic call,"End Point: In vivo micronucleus, Test System: Micronucleated hepatocytes, Species: Rat, Strain/Sex: F344/Male, Route: Oral",inactive; negative
same,mutagenic call,"Test System: AMES SALMONELLA TYPHIMURIUM, Strain/Indicator: TA98, Metabolic Activation: NONE, Method: SPIRAL ASSAY",inactive; negative
same,mutagenic call,"Test System: AMES SALMONELLA TYPHIMURIUM, Strain/Indicator: TA98, Metabolic Activation: NONE, Method: STANDARD PLATE",inactive; negative
same,mutagenic call,"Test System: AMES SALMONELLA TYPHIMURIUM, Strain/Indicator: TA98, Metabolic Activation: RAT, LIVER, S-9, AROCLOR 1254, Method: SPIRAL ASSAY",active; positive
same,mutagenic call,"Test System: AMES SALMONELLA TYPHIMURIUM, Strain/Indicator: TA100, Metabolic Activation: NONE, Method: SPIRAL ASSAY",active; positive
same,mutagenic call,"Test System: AMES SALMONELLA TYPHIMURIUM, Strain/Indicator: TA100, Metabolic Activation: NONE, Method: STANDARD PLATE",active; positive
same,mutagenic call,"Test System: AMES SALMONELLA TYPHIMURIUM, Strain/Indicator: TA100, Metabolic Activation: RAT, LIVER, S-9, AROCLOR 1254, Method: SPIRAL ASSAY",inactive; negative
same,mutagenic call,"Test System: AMES SALMONELLA TYPHIMURIUM, Strain/Indicator: TA100, Metabolic Activation: RAT, LIVER, S-9, AROCLOR 1254, Method: STANDARD PLATE",active; positive
same,mutagenic call,"Test System: AMES SALMONELLA TYPHIMURIUM, Strain/Indicator: TA1535, Metabolic Activation: NONE, Method: SPIRAL ASSAY",active; positive
same,mutagenic call,"Test System: AMES SALMONELLA TYPHIMURIUM, Strain/Indicator: TA1535, Metabolic Activation: NONE, Method: STANDARD PLATE",active; positive
same,mutagenic call,"Test System: AMES SALMONELLA TYPHIMURIUM, Strain/Indicator: TA1535, Metabolic Activation: RAT, LIVER, S-9, AROCLOR 1254, Method: SPIRAL ASSAY",active; positive
same,mutagenic call,"Test System: AMES SALMONELLA TYPHIMURIUM, Strain/Indicator: TA1535, Metabolic Activation: RAT, LIVER, S-9, AROCLOR 1254, Method: STANDARD PLATE",active; positive
same,mutagenic call,"Test System: AMES SALMONELLA TYPHIMURIUM, Strain/Indicator: TA1537, Metabolic Activation: NONE, Method: SPIRAL ASSAY",inactive; negative
same,mutagenic call,"Test System: AMES SALMONELLA TYPHIMURIUM, Strain/Indicator: TA1537, Metabolic Activation: NONE, Method: STANDARD PLATE",active; positive
same,mutagenic call,"Test System: AMES SALMONELLA TYPHIMURIUM, Strain/Indicator: TA1537, Metabolic Activation: RAT, LIVER, S-9, AROCLOR 1254, Method: SPIRAL ASSAY",inactive; negative
same,mutagenic call,"Test System: AMES SALMONELLA TYPHIMURIUM, Strain/Indicator: TA1537, Metabolic Activation: RAT, LIVER, S-9, AROCLOR 1254, Method: STANDARD PLATE",active; positive
same,mutagenic call,"Test System: AMES SALMONELLA TYPHIMURIUM, Strain/Indicator: TA1538, Metabolic Activation: RAT, LIVER, S-9, AROCLOR 1254, Method: STANDARD PLATE",active; positive
same,mutagenic call,"Test System: AMES SALMONELLA TYPHIMURIUM, Strain/Indicator: YG7100, Metabolic Activation: NONE, Method: PREINCUBATION",inactive; negative
same,mutagenic call,"Test System: AMES SALMONELLA TYPHIMURIUM, Strain/Indicator: YG7104, Metabolic Activation: NONE, Method: PREINCUBATION",active; positive
same,mutagenic call,"Test System: AMES SALMONELLA TYPHIMURIUM, Strain/Indicator: YG7108, Metabolic Activation: NONE, Method: PREINCUBATION",active; positive
same,mutagenic call,"Test System: AMES SALMONELLA TYPHIMURIUM, Strain/Indicator: YG7112, Metabolic Activation: NONE, Method: PREINCUBATION",active; positive
same,mutagenic call,"Test System: AMES SALMONELLA TYPHIMURIUM, Strain/Indicator: YG7113, Metabolic Activation: NONE, Method: PREINCUBATION",active; positive
same,mutagenic call,"Test System: AMES SALMONELLA TYPHIMURIUM, Strain/Indicator: YG7119, Metabolic Activation: NONE, Method: PREINCUBATION",inactive; negative
same,mutagenic call,"Test System: CHINESE HAMSTER OVARY, Strain/Indicator: CHO-K1-BH4 (HGPRT)/6-THIOGUANINE, Metabolic Activation: NONE, Method: LIQUID SUSPENSION",active; positive
same,mutagenic call,"Test System: CHINESE HAMSTER OVARY, Strain/Indicator: CHO-K1-BH4 (HGPRT)/6-THIOGUANINE, Metabolic Activation: NONE, Method: SUSPENSION/PLATE",active; positive
same,mutagenic call,"Test System: CHINESE HAMSTER OVARY, Strain/Indicator: CHO-K1-BH4 (HGPRT), Metabolic Activation: NONE, Method: MONOLAYER",active; positive
same,mutagenic call,"Test System: CHINESE HAMSTER OVARY, Strain/Indicator: CHO-K1-BH4 (HGPRT), Metabolic Activation: NONE, Method: SUSPENSION/PLATE",active; positive
same,mutagenic call,"Test System: CHINESE HAMSTER V-79, Strain/Indicator: V-79 (HGPRT)/6-THIOGUANINE, Metabolic Activation: NONE",active; positive
same,mutagenic call,"Test System: CHINESE HAMSTER V-79, Strain/Indicator: V-79 (HPRT)/6-THIOGUANINE, Metabolic Activation: NONE, Method: FLUCTUATION TEST",active; positive
same,mutagenic call,"Test System: CHINESE HAMSTER V-79, Strain/Indicator: V-79-MZ (HPRT)/6-THIOGUANINE, Metabolic Activation: NONE",active; positive
same,mutagenic call,"Test System: CHINESE HAMSTER V-79, Strain/Indicator: V-79-UL (HPRT)/6-THIOGUANINE, Metabolic Activation: NONE",active; positive
same,mutagenic call,"Test System: CHINESE HAMSTER V-79, Strain/Indicator: V-79/6-THIOGUANINE, Metabolic Activation: NONE, Method: FLASK ASSAY",active; positive
same,mutagenic call,"Test System: CHINESE HAMSTER V-79, Strain/Indicator: V-79/6-THIOGUANINE, Metabolic Activation: NONE, Method: LIQUID SUSPENSION",active; positive
same,mutagenic call,"Test System: CHINESE HAMSTER V-79, Strain/Indicator: V-79/6-THIOGUANINE, Metabolic Activation: NONE, Method: STANDARD PLATE",active; positive
same,mutagenic call,"Test System: CHINESE HAMSTER V-79, Strain/Indicator: V-79/6-THIOGUANINE, Metabolic Activation: NONE, Method: SUSPENSION/PLATE",active; positive
same,mutagenic call,"Test System: CHINESE HAMSTER V-79, Strain/Indicator: V-79/8-AZAGUANINE, Metabolic Activation: NONE, Method: STANDARD PLATE",active; positive
same,mutagenic call,"Test System: CHINESE HAMSTER V-79, Strain/Indicator: V-79/8-AZAGUANINE, Metabolic Activation: NONE, Method: SUSPENSION/PLATE",active; positive
same,mutagenic call,"Test System: CHINESE HAMSTER V-79, Strain/Indicator: V-79/OUABAIN, Metabolic Activation: NONE, Method: STANDARD PLATE",active; positive
same,mutagenic call,"Test System: CHINESE HAMSTER V-79, Strain/Indicator: V-79/OUABAIN, Metabolic Activation: NONE, Method: SUSPENSION/PLATE",active; positive
same,mutagenic call,"Test System: CHO/HGPRT, Strain/Indicator: CHO-K1-BH4, Metabolic Activation: MOUSE, IN VIVO, Method: HOST-MEDIATED",active; positive
same,mutagenic call,"Test System: E. COLI, Strain/Indicator: WP2, Metabolic Activation: NONE, Method: STANDARD PLATE",active; positive
same,mutagenic call,"Test System: E. COLI, Strain/Indicator: WP2, Metabolic Activation: RAT, LIVER, S-9, AROCLOR 1254, Method: STANDARD PLATE",active; positive
same,mutagenic call,"Test System: E. COLI, Strain/Indicator: WP2 UVRA, Metabolic Activation: HAMSTER, LIVER, S-9, AROCLOR 1254, Method: STANDARD PLATE",inactive; negative
same,mutagenic call,"Test System: E. COLI, Strain/Indicator: WP2 UVRA, Metabolic Activation: HAMSTER, LIVER, S-9, Method: STANDARD PLATE",inactive; negative
same,mutagenic call,"Test System: E. COLI, Strain/Indicator: WP2 UVRA, Metabolic Activation: MOUSE, LIVER, S-9, AROCLOR 1254, Method: STANDARD PLATE",inactive; negative
same,mutagenic call,"Test System: E. COLI, Strain/Indicator: WP2 UVRA, Metabolic Activation: MOUSE, LIVER, S-9, Method: STANDARD PLATE",inactive; negative
same,mutagenic call,"Test System: E. COLI, Strain/Indicator: WP2 UVRA, Metabolic Activation: RAT, LIVER, S-9, Method: STANDARD PLATE",inactive; negative
same,mutagenic call,"Test System: MOUSE LYMPHOMA, Strain/Indicator: L5178Y (HGPRT)/6-THIOGUANINE, Metabolic Activation: NONE, Method: SUSPENSION/PLATE",active; positive
same,mutagenic call,"Test System: MOUSE LYMPHOMA, Strain/Indicator: L5178Y (TK+/TK-)/TRIFLUOROTHYMIDINE, Metabolic Activation: NONE, Method: SUSPENSION/PLATE",active; positive
same,mutagenic call,"Test System: MOUSE LYMPHOMA, Strain/Indicator: L5178Y (TK+/TK-), Metabolic Activation: NONE, Method: FLUCTUATION TEST",active; positive
same,mutagenic call,"Test System: MOUSE LYMPHOMA, Strain/Indicator: L5178Y (TK+/TK-), Metabolic Activation: NONE, Method: IN SITU",active; positive
same,mutagenic call,"Test System: MOUSE LYMPHOMA, Strain/Indicator: L5178Y (TK+/TK-), Metabolic Activation: NONE, Method: LIQUID SUSPENSION",active; positive
same,mutagenic call,"Test System: MOUSE LYMPHOMA, Strain/Indicator: L5178Y (TK+/TK-), Metabolic Activation: RAT, LIVER, S-9, AROCLOR 1254, Method: SUSPENSION/PLATE",active; positive
same,mutagenic call,"Test System: UDS HUMAN CELLS, Strain/Indicator: THY INCORP (NON-S-PHASE), Metabolic Activation: NONE, Method: LIQUID SCINTILLATION COUNTING",active; positive
same,mutagenic call,"Test System: UDS HUMAN LYMPHOCYTES, Strain/Indicator: THY INCORP (NON-S-PHASE), Metabolic Activation: NONE, Method: LIQUID SCINTILLATION COUNTING",active; positive
same,mutagenic call,"Test System: UDS RODENT PRIMARY CELLS, Strain/Indicator: THY INCORP (NON-S-PHASE), Metabolic Activation: NONE, Method: LIQUID SCINTILLATION COUNTING",active; positive

# Source: PubChem BioAssay AID1259407 (Chemical Carcinogenesis Research Information System (CCRIS), 2018)
